SMILES strings stand for the structures.

Test [1] has as its system HO-1 promoter. Put plainly: HO-1 promoter luciferase reporter in cortical cultures. Format: cell-based, rat. The method, then:
Next, transcriptional activation of the HO-1 promoter by NEPP was examined by reporter gene assays in primary neurons. Cortical cultures were transfected with reporter cDNAs (1 μg per well), and 0.7 μM NEPP11 was added to the cultures. After a 24 h incubation, cell lysates were subjected to luciferase reporter assays. […] If the Keap1/Nrf2 pathway, indeed, mediates activation of the HO-1 promoter by NEPP11, mutant Nrf2 protein should inhibit this activation. […] Moreover, the selective activation in neurons may explain the relatively small amplitude of total HO-1 activation seen in the mixed neuronal/glial culture system in which glia predominate.
(In a reporter assay the amount or activity of a reporter protein is the signal.)

Test [2] relates to HO-1 promoter. Nature of the test: HO-1 promoter luciferase reporter (pHO15luc) in HT22 cells. The format is cell-based, mouse. The method, then: Cell cultures, transfection, and glutathione (GSH) measurement. […] Transfection was performed with Lipofectamine 2000 (Invitrogen). In the reporter gene assays, firefly luciferase activity in cell lysates was measured with a luminometer (Promega). Total GSH (reduced and oxidized) was determined as described (Lee et al., Biochem. Biophys. Res. Commun. 280:286-292, 2001).
NEPPs activate HO-1 transcription through the ARE. We next studied activation of the HO-1 promoter and ARE by NEPP. In order to examine the induction of HO-1 protein by NEPP11, various concentrations of NEPP11 were added to HT22 cells for 24 h. Thereafter, cell lysates (10 μg per lane) were subjected to SDS-PAGE and probed with anti-HO-1 or anti-β-actin. […] Next, we studied transcriptional activation of the HO-1 gene by NEPP11 in HT22 cells, a differentiated neuronal cell line, transfected with pHO15luc, a luciferase reporter construct under the control of a 15-kb mouse HO-1 promoter fragment. HT22 cells were transfected with reporter cDNAs (1 μg per well), and various concentrations of NEPP11 were added to the cultures. After a 24-h incubation, cell lysates were subjected to luciferase reporter assays. […] Gong et al. (Antioxid. Redox Signal. 4:249-257, 2002) had identified two enhancer regions, E1 and E2, located upstream of the transcriptin initiation site by approximately 4 and 10 kb that contained the elements responsible for activation by 15-deoxy-Δ^12,14-PGJ2 (Gong et al., Antioxid. Redox Signal. 4:249-257, 2002). To determine the role of the E1 and E2 enhancers, we expressed a mutant promoter construct lacking both enhancer sites [pHO15lucΔ(E1+E2)]. The mutant was only minimally responsive to NEPP11 (1.8-fold induction).
Because the E1 and E2 regions also contain other enhancer elements, we tested the effects of NEPP11 (2 μM) on the expression of luciferase activity derived from these elements, including the cAMP-responsive element (CRE; p3xCREluc), AP-1 binding site (p3xAP1luc), NF-κB binding site (p3xNF-κBluc), NFAT-binding site (p3xNFATluc), ETS-binding site (p3xETSluc), and MEF2-binding site (p3xMEF2luc).

Another test has as its target T1, Keap1 (Mus musculus, UniProt Q9Z2X8).
T1 construct: expressed in transfected cells; host or cells: COS7 cells
Put plainly: Binding of CAB/CA to Keap1 and Keap1 deletion mutants (streptavidin precipitation). To be noted: PC12h cells transfected with Keap1 (non-HA-tagged). The method, then: (3) Expression vectors for HA-tagged Keap1 and Keap1 deletion mutants. These constructs were obtained from Dr. Akira Kobayashi of Tohoku University (Hosoya et al., J. Biol. Chem. 29:27244-27250, 2006; Kobayashi et al., Mol. Cell. Biol. 26:221-229, 2006).
Immunoprecipitation with agarose-immobilized streptavidin or antibody. PC12h cells (CAB- or vehicle-treated) were lysed in RIPA buffer supplemented with protease inhibitor cocktail. The lysates were centrifuged at 15,000 rpm for 10 min at 4° C., after which the supernatants were incubated with agarose-immobilized streptavidin at 4° C. for 1 h. Alternatively, for immunoprecipitation with anti-Keap1, the cell lysates were incubated with the antibody at 4° C. overnight, after which protein A immobilized on Sepharose CL-4B was added and incubation continued at 4° C. for 1 h. Then, the complexes were washed three times with rinse buffer (150 mM NaCl, 50 mM Tris-HCl [pH 7.5], 0.1% NP-40, 1 mM EDTA, and 0.02% NaN3). SDS sample buffer was added, the mixture was boiled for 5 min, and the supernatants were subjected to SDS-PAGE. Immunoblotting was then performed as described above.
CA activates the Keap1/Nrf2/ARE pathway. […] The initial reaction in this activation cascade is the binding of an electrophilic compound to specific cysteines on Keap1 protein (Hong et al., Chem. Res. Toxicol. 18: 1917-1926, 2005; Eggler et al., Proc. Nat. Acad. Sci. USA 102:10070-10075, 2005; Zhang et al., Mol. Cell. Biol. 10941-10953, 2004). Such binding initiates a cellular transcription pathway leading to induction of phase 2 enzymes (Talalay, Biofactors 12:5-11, 2000; Padmanabham et al., Mol. Cell 21:689-700, 2006; Itoh et al., Free Radic. Biol. Med. 36:1208-1213, 2004). Therefore, we examined the domains of Keap1 (designated BTB, IVR, and DGR) to determine those essential for binding to CA. Accordingly, for co-immunoprecipitation experiments, we transfected COS7 cells with DNA expressing either HA-tagged wild type Keap1 protein (HA-WT Keap1) or various deletion mutants of tagged Keap1 protein (HA-ΔBTB Keap1, HA-ΔIVR Keap1, and HA-ΔDGR Keap1). The transfected COS7 cells were then treated with vehicle or 10 μM CAB and lysed. We quantified the expression level of Keap1 protein in total cell lysates with anti-HA antibody. Each Keap1 mutant protein was expressed at a similar level of the predicted molecular weight (57 kDa for HA-ΔBTB Keap1, 53 kDa for HA-ΔIVR Keap1, and 37 kDa for HA-ΔDGR Keap1). Next, in order to detect Keap1/CAB complexes, we immunoprecipitated cell lysates with streptavidin and probed with anti-HA antibody. […] The requirement of the BTB domain for CA binding is in accord with prior results (Hong et al., Chem. Res. Toxicol. 18:1917-1926, 2005; Eggler et al., Proc. Nat. Acad. Sci. USA 102:10070-10075, 2005; Zhang et al., Mol. Cell. Biol. 24:10941-10953, 2004).
After binding of the electrophilic quinone-form of CA to Keap1 protein, activation of the Keap1/Nrf2 pathway requires nuclear translocation of Nrf2 (Talalay, Biofactors 12:5-11, 2000; Padmanabham et al., Mol. Cell 21:689-700, 2006; Itoh et al., Free Radic. Biol. Med. 36:1208-1213, 2004). Thus, we next examined the intracellular distribution of Nrf2 protein in COS7 cells by immunofluorescence.

T1 sequence (Q9Z2X8 whole entry): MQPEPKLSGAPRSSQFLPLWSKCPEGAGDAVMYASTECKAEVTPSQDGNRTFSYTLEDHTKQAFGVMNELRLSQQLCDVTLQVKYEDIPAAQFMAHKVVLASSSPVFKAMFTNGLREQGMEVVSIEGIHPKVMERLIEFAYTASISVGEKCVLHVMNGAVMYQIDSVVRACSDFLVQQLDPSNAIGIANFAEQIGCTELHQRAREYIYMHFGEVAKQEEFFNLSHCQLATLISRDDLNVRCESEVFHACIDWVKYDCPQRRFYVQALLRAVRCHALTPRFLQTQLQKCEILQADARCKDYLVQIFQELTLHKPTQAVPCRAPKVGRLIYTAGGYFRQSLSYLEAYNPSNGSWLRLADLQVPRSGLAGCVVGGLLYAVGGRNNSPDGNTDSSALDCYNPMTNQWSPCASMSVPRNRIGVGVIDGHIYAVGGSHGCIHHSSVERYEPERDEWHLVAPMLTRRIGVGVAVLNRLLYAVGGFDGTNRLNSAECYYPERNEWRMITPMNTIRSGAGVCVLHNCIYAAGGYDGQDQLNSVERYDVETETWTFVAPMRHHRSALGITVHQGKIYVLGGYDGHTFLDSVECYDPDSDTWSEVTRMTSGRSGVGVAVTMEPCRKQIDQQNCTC

As to `COC(=O)CCCCC/C=C1/C(=O)C=C[C@H]1CCCCCCc1ccc(C)cc1` [NEPP11], in the test with HO-1 promoter [1] (NEPP11 0.7 μM, 24 h), the “activity of the HO-1 promoter” value is recorded as “significantly increased”. The “HO-1 promoter activation with cotransfection of pNrf2(S40A)-GFP” value in the test with HO-1 promoter [1] (NEPP11, pNrf-GFP did not affect activation) is “almost completely knocked down”. Also, the “expression of HO-1 transcription (pHO15luc luciferase activity)” value in the test on HO-1 promoter [2] (HT22 cells, 24 h, dose-dependent) is reported as “more than five-fold”. For the same compound, the “induction of mutant promoter pHO15lucΔ(E1+E2)” value in the test on HO-1 promoter [2] (HT22 cells, construct lacking E1 and E2 enhancers) was 1.8 fold. In addition, the “induction of pHO15luc reporter activity” value in the test with HO-1 promoter [2] (NEPP11 2 μM, used for comparison) is listed as “greater than five-fold”. Besides, the “activation of pHO15luc with co-transfection of pKeap1(C151S)” value in the test with HO-1 promoter [2] (not depressed by wild-type pKeap1) is reported as “significantly depressed”.

Take `CC(C)c1cc2c(c(O)c1O)[C@@]1(C(=O)O)CCCC(C)(C)[C@@H]1CC2` [CA, carnosic acid]: the “complex formation with Keap1” value on Keap1 was “formed CA/Keap1 complexes”.

The record behind these values is patent US8466311B2, “Neuroprotective compositions and methods” (Sanford-Burnham Medical Research Institute, priority 2006, dated 2013).
